# Measurements from article PMC11017298, “Macrocyclic Oxindole Peptide Epoxyketones—A Comparative Study of Macrocyclic Inhibitors of the 20S Proteasome” (ACS Medicinal Chemistry Letters, 2024).
# Like-named read-outs stand apart in the source and are kept apart here.
# Tests used:
# Assay type in all cases: biochemical
# [1] = target: T1, human 20S proteasome PGPH-L activity (Homo sapiens, UniProt P28072); test: Fluorometric kinetic enzyme assay, 20S proteasome PGPH-L activity (Cbz-LLE-AMC)
# T1 construct: human RBC proteasome was purchased from South Bay Bio; purchased South Bay Bio; host or cells: human red blood cells
# Protocol: (§1) Fluorometric kinetic enzyme inhibition assays (for details, see Supporting Information) were performed for the ChT-L activity of the constitutive 20S proteasome to compare IC50 values for 5 with linear analogue 6, unoxidized macrocycles 15a and 15b, and macrocyclic C-terminal amide 12 (Table 1). Furthermore, inhibition of the 20S proteasomal ChT-L activity was compared with T-L and PGPH-L activities and with inhibition of serine protease chymotrypsin and cysteine proteases cathepsin B and m-calpain.
# (§2) 6. In Vitro Kinetic Enzyme Assays
# (§3) The inhibitory potency and selectivity of the final compounds were tested using in vitro fluorescent enzyme kinetics. The enzyme assays used the fluorogenic substrate Suc-Leu-Leu-Val-Tyr-AMC (Suc-LLVY-AMC) and either the human 20S proteasome or alternate proteases chymotrypsin, m-calpain and cathepsin B. For cathepsin B, Cbz-Arg-Arg-AMC was used as the fluorogenic substrate. Kinetic enzyme assays were carried out on a fluorescent 96-well plate reader and AMC-substrate hydrolysis was measured at 353 nm excitation and 442 nm emission. Wells with inhibitor and wells with control solution were run in tandem. Vi and v0 were calculated from the slope of the measured relative fluorescent units (RFUs) graphed against time for inhibitor and control wells, respectively. Values for vi /v0 were plotted as a function of inhibitor concentration with GraphPad Prism and IC50 values were calculated from a nonlinear regression analysis of the data ([Inhibitor] vs. response, three parameters). […]
# [2] = target: T2, human 20S proteasome ChT-L activity (Homo sapiens, UniProt P28074); test: Fluorometric kinetic enzyme assay, 20S proteasome ChT-L activity (Suc-LLVY-AMC); conditions: for IC50: constitutive human 20S proteasome, Suc-LLVY-AMC, 37 C, 10 min
# T2 construct: human RBC proteasome was purchased from South Bay Bio; purchased South Bay Bio; host or cells: human red blood cells
# Protocol: as §1, §2
# The inhibitory potency and selectivity of the final compounds were tested using in vitro fluorescent enzyme kinetics. The enzyme assays used the fluorogenic substrate Suc-Leu-Leu-Val-Tyr-AMC (Suc-LLVY-AMC) and either the human 20S proteasome or alternate proteases chymotrypsin, m-calpain and cathepsin B. For cathepsin B, Cbz-Arg-Arg-AMC was used as the fluorogenic substrate. Kinetic enzyme assays were carried out on a fluorescent 96-well plate reader and AMC-substrate hydrolysis was measured at 353 nm excitation and 442 nm emission. Wells with inhibitor and wells with control solution were run in tandem. Vi and v0 were calculated from the slope of the measured relative fluorescent units (RFUs) graphed against time for inhibitor and control wells, respectively. Values for vi /v0 were plotted as a function of inhibitor concentration with GraphPad Prism and IC50 values were calculated from a nonlinear regression analysis of the data ([Inhibitor] vs. response, three parameters).
# Human 20S Proteasome ChT-L Activity: A well was loaded with 86 µL of buffer (20 mM HEPES, 0.5 mM EDTA, 0.037% SDS, pH 7.8), 2 µL of fluorogenic substrate (Suc-LLVY-AMC, 5 mM in DMSO), 20 µL of human 20S proteasome (0.34 µM in H2O) and either 2 µL of inhibitor (at varying concentrations in DMSO) or 2 µL of DMSO (control). The fluorescent signal of the cleaved AMC chromophore was measured in RFUs at 37 °C over a span of 10 minutes with measurements taken every 20 seconds. […]
# [3] = target: T3, chymotrypsin (Bos taurus, UniProt P00766); test: Fluorometric kinetic enzyme assay, chymotrypsin (Suc-LLVY-AMC)
# T3 construct: chymotrypsin was purchased from Sigma Aldrich; purchased Sigma Aldrich; host or cells: bovine pancreas
# [4] = target: T4, human 20S proteasome T-L activity (Homo sapiens, UniProt Q99436); test: Fluorometric kinetic enzyme assay, 20S proteasome T-L activity (Ac-RLR-AMC)
# T4 construct: human RBC proteasome was purchased from South Bay Bio; purchased South Bay Bio; host or cells: human red blood cells
# Protocol: as §1, §2, §3
# Human 20S Proteasome T-L Activity: A well was loaded with 69 µL of buffer (50 mM Tris, 1 mM EDTA, 100 mM NaCl, pH 7.5), 2 µL of fluorogenic substrate (Ac-RLR-AMC, 59 mM in DMSO), 2 µL of human 20S proteasome (2.6 µM in H2O) and either 2 µL of inhibitor (at varying concentrations in DMSO) or 2 µL of DMSO (control). […]
# [5] = target: T5, m-calpain (Sus scrofa, UniProt P35750); test: Fluorometric kinetic enzyme assay, m-calpain (Suc-LLVY-AMC)
# T5 construct: erythrocytes calpain-1 were purchased from Millipore; purchased Millipore; host or cells: porcine erythrocytes
# T5 sequence (P35750 1-714): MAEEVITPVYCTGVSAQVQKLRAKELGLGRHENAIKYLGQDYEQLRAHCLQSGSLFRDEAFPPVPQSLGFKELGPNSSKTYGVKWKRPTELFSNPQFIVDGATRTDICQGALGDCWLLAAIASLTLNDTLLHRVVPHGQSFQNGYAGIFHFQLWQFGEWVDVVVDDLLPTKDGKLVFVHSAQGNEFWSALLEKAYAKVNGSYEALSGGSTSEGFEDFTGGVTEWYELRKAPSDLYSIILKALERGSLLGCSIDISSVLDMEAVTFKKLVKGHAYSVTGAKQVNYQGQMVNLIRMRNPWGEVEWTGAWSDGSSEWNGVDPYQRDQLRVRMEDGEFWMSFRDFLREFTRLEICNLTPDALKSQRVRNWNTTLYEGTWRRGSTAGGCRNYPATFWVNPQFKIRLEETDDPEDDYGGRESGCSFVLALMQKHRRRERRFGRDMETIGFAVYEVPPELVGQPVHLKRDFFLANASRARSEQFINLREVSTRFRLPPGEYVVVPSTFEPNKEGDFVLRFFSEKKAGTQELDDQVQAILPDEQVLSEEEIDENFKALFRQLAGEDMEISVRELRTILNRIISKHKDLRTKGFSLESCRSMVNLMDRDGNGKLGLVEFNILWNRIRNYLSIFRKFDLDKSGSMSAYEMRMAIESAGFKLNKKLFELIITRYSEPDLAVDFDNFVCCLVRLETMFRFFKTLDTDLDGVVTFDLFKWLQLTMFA
# T5 sequence (P04574 1-266 partner): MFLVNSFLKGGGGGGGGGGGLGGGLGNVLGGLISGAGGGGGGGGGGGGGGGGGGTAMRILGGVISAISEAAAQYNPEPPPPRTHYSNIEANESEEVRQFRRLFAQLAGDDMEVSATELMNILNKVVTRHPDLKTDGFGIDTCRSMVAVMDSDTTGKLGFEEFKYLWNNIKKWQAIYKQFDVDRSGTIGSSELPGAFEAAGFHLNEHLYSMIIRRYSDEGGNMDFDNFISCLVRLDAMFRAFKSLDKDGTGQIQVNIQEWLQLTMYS
# [6] = target: T6, cathepsin B enzyme from human liver (Homo sapiens, UniProt P07858); test: Fluorometric kinetic enzyme assay, cathepsin B (Cbz-Arg-Arg-AMC)
# T6 construct: from human liver; purchased Millipore; host or cells: human liver
# [7] = human 20S proteasome, Cbz-LLE-AMC, N.I. = no inhibition at 130 μM, read-out: IC50 20S Proteasome PGPH-L Activity
# [8] = Suc-LLVY-AMC, N.I. = no inhibition at 130 μM, read-out: IC50 Chymotrypsin
# [9] = human 20S proteasome, Ac-RLR-AMC, N.I. = no inhibition at 130 μM, read-out: IC50 20S Proteasome T-L Activity
# [10] = Suc-LLVY-AMC, N.I. = no inhibition at 130 μM, read-out: IC50 m-Calpain
# [11] = human liver enzyme, Cbz-Arg-Arg-AMC, pH 6.0, N.I. = no inhibition at 130 μM, read-out: IC50 Cathepsin B
"IC50 [1, 7]",IC50 [2],"IC50 [3, 8]","IC50 [4, 9]","IC50 [5, 10]","IC50 [6, 11]","inhibition of PGPH-L activity, in words [1]","inhibition of chymotrypsin, in words [3]","inhibition of T-L activity, in words [4]","inhibition of m-calpain, in words [5]","inhibition of cathepsin B, in words [6]","inhibitory potency for the proteasome, in words ([2]; comparison among tested inhibitors)",Compound,IC50 [1],fold lower potency (ChT-L) than macrocycle 5 ([2]; linear analogue versus macrocyclic 5),IC50 [3],IC50 [4],IC50 [5],IC50 [6]
> 130 µM,0.55 ± 0.09 µM,> 130 µM,> 130 µM,> 130 µM,> 130 µM,–,–,–,–,–,–,CC(=O)N[C@H]1Cc2ccc([N+](=O)[O-])c(c2)Oc2ccc(cc2)C[C@@H](C(=O)N[C@@H](CC(C)C)C(=O)[C@@]2(C)CO2)NC(=O)[C@H](CC(C)C)NC1=O [15a],–,–,–,–,–,–
–,–,> 130 µM,–,> 130 µM,> 130 µM,–,–,–,–,–,–,"CC(C)C[C@H](NC(=O)[C@H](CCc1ccccc1)NC(=O)CN1CCOCC1)C(=O)N[C@@H](Cc1ccccc1)C(=O)N[C@@H](CC(C)C)C(=O)[C@@]1(C)CO1 [carfilzomib, reference compound]",–,–,–,–,–,–
52.5 ± 16.6 µM,0.19 ± 0.02 µM,> 130 µM,> 130 µM,> 130 µM,> 130 µM,does not significantly inhibit,not found to have any cross-reactivity,does not significantly inhibit,not found to have any cross-reactivity,not found to have any cross-reactivity,–,CC(=O)N[C@H]1Cc2ccc([N+](=O)[O-])c(c2)Oc2ccc3c(c2)C(C[C@@H](C(=O)N[C@@H](CC(C)C)C(=O)[C@@]2(C)CO2)NC(=O)[C@H](CC(C)C)NC1=O)C(=O)N3 (stereo partly drawn) [compound 5],–,–,–,–,–,–
> 130 µM,25 ± 1 µM,> 130 µM,46.1 ± 3.1 µM,> 130 µM,> 130 µM,–,–,–,–,–,least potent inhibitor,CC(=O)N[C@H]1Cc2ccc([N+](=O)[O-])c(c2)Oc2ccc3c(c2)C(C[C@@H](C(=O)N[C@@H](CC(C)C)C(N)=O)NC(=O)[C@H](CC(C)C)NC1=O)C(=O)N3 (stereo partly drawn) [compound 12],–,–,–,–,–,–
7.51 ± 2.32 µM,0.24 ± 0.06 µM,> 130 µM,> 130 µM,2 ± 0.3 µM,3.1 ± 1 µM,–,–,–,inhibits,inhibits,–,"CC(C)C[C@@H](C=O)NC(=O)[C@@H]1Cc2ccc(cc2)Oc2cc(ccc2[N+](=O)[O-])C[C@H](NC(=O)OCc2ccccc2)C(=O)N[C@@H](CC(C)C)C(=O)N1 [compound 16, reference compound]",–,–,–,–,–,–

Compound,"IC50 [1, 7]",IC50 [2],"IC50 [3, 8]","IC50 [4, 9]","IC50 [5, 10]","IC50 [6, 11]","inhibition of PGPH-L activity, in words [1]","inhibition of chymotrypsin, in words [3]","inhibition of T-L activity, in words [4]","inhibition of m-calpain, in words [5]","inhibition of cathepsin B, in words [6]","inhibitory potency for the proteasome, in words ([2]; comparison among tested inhibitors)",IC50 [1],fold lower potency (ChT-L) than macrocycle 5 ([2]; linear analogue versus macrocyclic 5),IC50 [3],IC50 [4],IC50 [5],IC50 [6]
CC(=O)N[C@@H](Cc1ccc([N+](=O)[O-])c(F)c1)C(=O)N[C@@H](CC(C)C)C(=O)N[C@@H](CC1C(=O)Nc2ccc(O)cc21)C(=O)N[C@@H](CC(C)C)C(=O)[C@@]1(C)CO1 (stereo partly drawn) [compound 6],–,1 ± 0.1 µM,–,–,–,–,–,–,–,–,–,–,> 130 µM,4 fold,> 130 µM,> 130 µM,> 130 µM,> 130 µM
CC(=O)N[C@H]1Cc2ccc([N+](=O)[O-])c(c2)Oc2ccc(cc2)CC[C@@H](C(=O)N[C@@H](CC(C)C)C(=O)[C@@]2(C)CO2)NC(=O)[C@H](CC(C)C)NC1=O [15b],> 130 µM,2.9 ± 0.42 µM,> 130 µM,> 130 µM,> 130 µM,> 130 µM,–,–,–,–,–,–,–,–,–,–,–,–
